Assay results as given in patent US7932287B2, “Therapeutic compositions and uses” (ChemGenes Corporation, priority 2004, dated 2011).
Where two headings read alike, the source gives them in different places.

Legend:
[1] = system: child who was afflicted with LINCL; assay: Exogenous L-carnitine given to the LINCL child for over three years; assay type: in vivo, human
Method: (§1) Child had been taking the supplements/vitamins listed in Appendix B for about three years before the start of TML therapy. In addition, they had been taking clonazepam (5-(2-chlorophenyl)-1,3-dihydro7-nitro-2H-1,4-benzodiazepin-2-one) which is sold under the trade name Klonopin by F. Hoffmann-La Roche Ltd. (Basel, Switzerland) for control of constant Myoclonic seizures for about the same time according to the following daily dosage: (a) at waking: ½ of one 0.5 mg tablet, (b) Every four hours after waking, ¼ of one 0.5 mg tablet, (c) At bedtime: ½ of one 0.5 mg tablet. They also took one (1) 25 mg capsule of nitrofurantoin macrocrystals (sold under the name Macrodantin by Procter & Gamble Pharmaceuticals, Cincinnati Ohio) once per day.
In summary, L-carnitine plays a key and critical role in enhancing fat metabolism. Reports attest to the fact that L-carnitine works by transporting fatty acids to be burned for fuel, increasing both energy supply and lean muscle mass. […] This contrasts with the apparent need in Late Infantile Neuronal Ceroid Lipofuscinosis (LINCL-one form of Batten Disease) of the correct operation of the endogenous production of L-carnitine. […] This also was not observed by the parents of the child who was afflicted with LINCL (discussed later).

[2] = system: dogs with Batten Disease (Juvenile Neuronal Ceroid Lipofuscinosis); conditions: cited from earlier work
[3] = system: child diagnosed with Late Infantile Neuronal Ceroid Lipofuscinosis (LINCL); assay: Blood work (standard clinical blood tests) before and after TML therapy; assay type: in vivo, human; set-up: Glutamine / Taurine / Carnitine, Total / Carnitine, Esthers / Alanine / Carbon Dioxide / BUN / Hgb / HCT / RDW / ABS Lymphocytes / Glycine: unit not given here
Method: as §1
(§2) “Baseline” blood work was done after an overnight fast on the morning of Nov. 19, 2003. Child received their usual supplements/vitamins, clonazepam, and macrodantin. TML, as synthesized in Example 1 was given to the patient (5 mg of TML per day for a […], ending Dec. 28, 2003). Between Dec. 28, 2003 and Jan. 24, 2004 we gave an alternating daily dose of 5 mg/day and 10 mg/day. On Jan. 24, 2004 and till the “new” blood work was done on Jan. 29, 2004, the patient received 10 mg/day by usually taking 5 mg of TML with breakfast and 5 mg of TML with dinner. They received 5 mg per dose during the duration of the experiment. In other words, they received TML once per day on days that they received 5 mg, and TML twice per day on days that they received 10 mg of TML. The TML was administered in powder form intermixed with their food.
The child's bloodwork results are in table 1, below and the empirical nature of the child's improvement is evidenced by the follow up blood results. These blood tests were standard clinical tests carried out at Children's Hospital of Pittsburgh.

[4] = system: child diagnosed with Late Infantile Neuronal Ceroid Lipofuscinosis (LINCL); assay: Physical condition of the patient after 9 weeks of TML therapy (parents' and physicians' observations); assay type: in vivo, human
Method: as §1, §2
Child's General Physical Condition Before the Start of TML Therapy (Based on Parents' Observations):
(The Physical Appearance of the Patient After the Stated 9 Weeks of TML Therapy.)

[5] = system: child diagnosed with Late Infantile Neuronal Ceroid Lipofuscinosis (LINCL); assay: as above; assay type: in vivo, human; conditions: TML 5 mg-30 mg per day after Jan. 29, 2004, through January 2005
L-carnitine biosynthesis [6] = conditions: rats; increased amount of the intermediate in the bloodstream; cited from earlier work
L-carnitine biosynthesis [7] = conditions: human infants & adults; increased amount of the intermediate in the bloodstream; cited from earlier work
[8] = exogenous carnitine, dogs with Juvenile Neuronal Ceroid Lipofuscinosis
[9] = Jan. 29, 2004, after TML, baseline high
[10] = Jan. 29, 2004, after TML, baseline normal

C[N+](C)(C)C[C@H](O)CC(=O)[O-] [L-carnitine, L-b-hydroxy-g-n-trimethylaminobutyric acid]
Metabolic changes or marked outward observations of their condition [1]: without significant metabolic changes or marked outward observations of their condition
Need for endogenous production of L-carnitine ([2]; exogenous L-Carnitine to dogs with Batten Disease): not ameliorated
Function of the dogs [2, 8]: more functional
Life span versus untreated dogs (lived longer) [2, 8]: 10%

C[N+](C)(C)CCCCC(N)C(=O)[O-] [TML, N-6-trimethyl-L-lysine]
Hgb ([3]; Jan. 29, 2004, after 9 weeks of TML 5-10 mg/day in food, overnight fast, baseline Nov. 19, 2003: 14.4 (high)): 14
BUN ([3]; Jan. 29, 2004, after 9 weeks of TML 5-10 mg/day, baseline 2 (low), 6 is norm): 5
ABS Lymphocytes ([3]; Jan. 29, 2004, after 9 weeks of TML 5-10 mg/day, baseline 2.2 (low)): 2.5
Carnitine, Esthers ([3]; Jan. 29, 2004, after 9 weeks of TML 5-10 mg/day, baseline 7 (normal)): 10
RDW ([3]; Jan. 29, 2004, after 9 weeks of TML 5-10 mg/day, baseline 11.5): 12.3
Taurine ([3]; Jan. 29, 2004, after 9 weeks of TML 5-10 mg/day, baseline 24 (high)): 19
Carbon Dioxide ([3]; Jan. 29, 2004, after 9 weeks of TML 5-10 mg/day, baseline 32 (high)): 22
Carnitine, Total ([3]; Jan. 29, 2004, after 9 weeks of TML 5-10 mg/day, baseline 40 (normal)): 43
HCT ([3]; Jan. 29, 2004, after 9 weeks of TML 5-10 mg/day, baseline 42 (high)): 40.3
Glycine ([3]; Jan. 29, 2004, after 9 weeks of TML 5-10 mg/day, baseline 50 (high)): 25
AST ([3]; Jan. 29, 2004, after 9 weeks of TML 5-10 mg/day, baseline 60 (high), 40 is norm): 50
Alanine ([3]; Jan. 29, 2004, after 9 weeks of TML 5-10 mg/day, baseline 87 (high)): 47
Glutamine ([3]; Jan. 29, 2004, after 9 weeks of TML 5-10 mg/day, baseline 99 (high)): 70
Platelets ([3]; Jan. 29, 2004, after 9 weeks of TML 5-10 mg/day, baseline 586 (high), 369 norm): 461
Alanine, Clinical Range [3, 9]: normal
Carbon Dioxide, Clinical Range [3, 9]: normal
Glutamine, Clinical Range [3, 9]: normal
Glycine, Clinical Range [3, 9]: normal
HCT, Clinical Range [3, 9]: normal
Hgb, Clinical Range [3, 9]: normal
RDW, Clinical Range [3, 9]: normal
Taurine, Clinical Range [3, 9]: normal
AST, Clinical Range ([3]; Jan. 29, 2004, after TML, baseline high, 40 is norm): high
Platelets, Clinical Range ([3]; Jan. 29, 2004, after TML, baseline high, 369 norm): high
ABS Lymphocytes, Clinical Range ([3]; Jan. 29, 2004, after TML, baseline low): normal
BUN, Clinical Range ([3]; Jan. 29, 2004, after TML, baseline low, 6 is norm): (low)
Carnitine, Esthers, Clinical Range [3, 10]: normal
Carnitine, Total, Clinical Range [3, 10]: normal
Elevation of serum amino acids (examining physician's comment) ([3]; Jan. 29, 2004, after TML, baseline: alanine elevated, glutamine increased): No significant elevation of serum Amino Acids
Eye movement and pupillary response ([4]; after 9 weeks of TML therapy): more eye movement and even the emergence of “purposeful” eye movement and a faster pupillary response
Hypertonicity of legs ([4]; after 9 weeks of TML therapy): still “hypertonic”
Swallowing ([4]; after 9 weeks of TML therapy): very much improved, almost normal
Hypertonicity of arms, hands and fingers ([4]; after 9 weeks of TML therapy, also observed by a physiatrist and neurologist): notable reduction
Cyanosis symptoms in the hands and feet ([4]; after 9 weeks of TML therapy, before: chronically cyanotic): virtually no cyanosis
Bowel movements ([4]; after 9 weeks of TML therapy, before: two or three days without bowel movement, enema needed): moving their bowels on their own one to three times a day
Insomnia / sleeping through the night ([4]; after approximately the first two weeks of TML, before: sleep interrupted 1 to 3 times per night): The insomnia was gone
Hyperammonemic condition (blue hands and feet) ([4]; after the administration of TML): amelioration of the hyperammonemic condition
Metabolic and outward, observable changes to their condition ([4]; exogenous TML to the LINCL child): yielded significant metabolic and outward, observable changes to their condition
Full body jerk (Myoclonus) elicited by touch ([4]; neurologist's office visit Jan. 30, 2004): no longer elicited a full body jerk
Myoclonic seizures ([4]; neurologist's office visit Jan. 30, 2004, clonazepam continued): markedly reduced in severity and in number
Condition on continued TML [5]: remained stable
Increase of the production of L-carnitine (L-carnitine biosynthesis [6]): 100 fold
Increase of the production of L-carnitine (L-carnitine biosynthesis [7]): 3 fold

C[N+](C)(C)CCCC(=O)[O-] [g-butyrobetaine, 4-N-trimethylaminobutyrate, reference compound]
Increase of the production of L-carnitine (L-carnitine biosynthesis [6]): 100 fold
Increase of the production of L-carnitine (L-carnitine biosynthesis [7]): 3 fold
